Data published in patent US8080654B2, “Macrocyclic quinoxaline compounds as HCV NS3 protease inhibitors” (Insituto di Ricerche di Biologia Molecolare P. Angeletti SpA, priority 2008, dated 2011).
“Also recorded” adds a separate entry of the source. Like-named read-outs stand apart in the source and are kept apart here.

Experiments:
[1] = Rat pharmacokinetics per os (plasma AUC, liver concentration)
Experimental: (§1) Plasma samples were collected at time points between 2 minutes and 24 h, and compound levels were determined by RP-HPLC. Liver samples were collected post mortem in rat and following anesthesia (0.5 h prior to biopsy) in dog. Liver samples were weighed, homogenized, and diluted using techniques known to those skilled in the art, and compound levels were determined by RP-HPLC.
(§2) Pharmacokinetic parameters were calculated based on non-compartmental analysis (e.g., using WATSON®, WINNOLIN®). Predose concentrations that were below the limit of quantitation (BLQ) were assigned a value of 0. […] AUC values were calculated using linear trapezoidal method for ascending concentrations and the log trapezoidal method for descending concentrations.

[2] = Physical properties: equilibrium solubility and salt disproportionation (XRPD, NMR); type: physicochemical
Experimental: After centrifuging, the supernatant was analyzed by reversed-phase HPLC and the equilibrium solubility determined by comparison with a calibration curve. The solid material was in part transferred onto an XRPD plate, dried and then analyzed by X-Ray Powder Diffraction. The XRPD pattern was compared with positive controls for crystalline K+ salt, crystalline zwitterionic (or acidic) and amorphous forms of the test compound.

[3] = Dog pharmacokinetics per os (plasma AUC, liver concentration)
Experimental: as §1, §2

[4] = In vivo covalent protein binding of 3H-labelled compound; conditions: Rat @ 6 h, 20 mg/kg oral
Experimental: In-Vivo Covalent Binding^4: […] Plasma and liver were collected and flash frozen/stored at −80° C. before analysis. Counting of the plasma samples: Place a 200 μL aliquot in a 20 mL scintillation vial. Add 500 μL of SOLVABLE™ and incubate at 1 h with shaking at 55° C. Remove, allow to cool prior to the addition of 15 mL scintillation cocktail, and count. […] Tissue homogenization: […] Counting of the liver homogenate: Aliquots were placed in a 20 mL scintillation vial, diluted with 1 mL of SOLVABLE™ and incubated for 1 h with shaking at 55° C. After removal from the incubator and cooling 15 mL scintillation cocktail and 30% H2O2 were added and the radioactivity counted. Protein precipitation: […] Protein precipitate resuspension: Sonication (minimal intensity, <5 sec) and vortexing until the pellet crumbles in 80% MeOH:20% water. Wash of the protein pellet: 2-5 mL 80:20 MeOH:water. If needed, remove 1.0 mL of the supernatant, add 15 mL of scintillation cocktail and count. Continue to wash the protein pellet until radioactivity in supernatant is <200 DPM or DPMs cease to decrease by more than 200 in consecutive washes. Dissolution of the final pellet: 1 mL of 1 N NaOH or Solvable™, incubated at 50° C. overnight or until completely dissolved. Counting of the final pellet: 1 mL of dissolved pellet, 15 mL scintillation cocktail (if another scintillation cocktail other than ULTIMA GOLD™ is used, pellet may require neutralization using 1 N HCl), and count. Protein concentration of the final pellet: BCA or BIO-RAD kit using BSA as a standard. Counting blank samples: 15 mL scintillation cocktail, in duplicate. Counting of the dosing solution: count a known volume of the dosing solution in triplicate. Data Analysis: Average the radioactivity counts (DPM) of the dosing solution and calculate the specific activity of the dosing solution in μCi/mol. Average the radioactivity counts of the blank samples. Subtract the counts of the averaged blank sample from the counts obtained from each liver and plasma pellet. Calculate the amount of radioactivity (μCi) per unit volume (L) for each liver and plasma pellet. Calculate the concentration of radioactivity in each plasma and liver pellet by dividing the value obtained above (μCi/L) by the specific activity (μCi/mol). Calculate the amount of covalently bound radioactivity to protein in pmol/mg protein.

HCV replicon gt1b = test: HCV replicon activity, genotype 1b; type: cell-based; conditions: Hepatitis C virus; genotype 1b replicon; 50% viral replication suppression; read-out: Replicon Activity EC50 gtlb
NS 3/4A 1b = NS 3/4A 1b (Hepatitis C virus genotype 1b, UniProt P26663); test: biochemical; conditions: genotype 1b enzyme; read-out: NS 3/4A Inhibitory Activity (Ki) lb
Chain of NS 3/4A 1b (P26663 1027-1657): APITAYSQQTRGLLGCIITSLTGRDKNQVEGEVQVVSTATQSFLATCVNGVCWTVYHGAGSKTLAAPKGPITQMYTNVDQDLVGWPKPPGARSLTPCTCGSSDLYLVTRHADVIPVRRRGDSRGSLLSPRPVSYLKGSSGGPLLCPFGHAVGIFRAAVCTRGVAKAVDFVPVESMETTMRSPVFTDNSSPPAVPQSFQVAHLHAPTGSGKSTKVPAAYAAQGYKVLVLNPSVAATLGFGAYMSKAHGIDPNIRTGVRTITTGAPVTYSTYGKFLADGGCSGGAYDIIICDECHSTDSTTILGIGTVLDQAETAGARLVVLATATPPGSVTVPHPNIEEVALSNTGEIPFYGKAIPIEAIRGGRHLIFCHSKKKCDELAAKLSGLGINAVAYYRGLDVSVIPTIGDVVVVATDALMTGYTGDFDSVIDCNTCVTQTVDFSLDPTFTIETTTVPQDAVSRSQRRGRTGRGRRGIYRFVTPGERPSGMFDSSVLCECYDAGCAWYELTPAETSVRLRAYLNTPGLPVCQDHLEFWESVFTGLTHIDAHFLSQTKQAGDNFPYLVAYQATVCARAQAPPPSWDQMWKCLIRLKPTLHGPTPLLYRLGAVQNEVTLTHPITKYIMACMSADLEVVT
Chain of NS 3/4A 1b (P26663 1658-1711): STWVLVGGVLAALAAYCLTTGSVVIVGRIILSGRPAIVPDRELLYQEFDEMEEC
Experimental: A NS3 protease assay can be performed, for example, in a final volume of 100 μl assay buffer containing 50 mM HEPES, pH 7.5, 150 mM NaCl, 15% glycerol, 0.15% TRITON X-100, 10 mM DTT, and 0.1% PEG 8000. NS3 and NS4A protease is pre-incubated with various concentrations of inhibitors in DMSO for 30 minutes. The reaction is initiated by adding the TRF peptide substrate (final concentration 100 nM). NS3 mediated hydrolysis of the substrate is quenched after 1 hour at room temperature with 100 μl of 500 mM MES, pH 5.5. […] IC50 values are derived using a standard four-parameter fit to the data. […] See P. Gallinari et al., 38 BIOCHEM. […] BIOCHEM. […] V. General Compound Production
NS 3/4A Inhibitory Activity^1 (Ki): NS 3/4A Inhibitory Activity was determined as described in Section IV.

SMILES: C=C[C@@H]1C[C@]1(NC(=O)[C@@H]1C[C@@H]2CN1C(=O)[C@H](C(C)(C)C)NC(=O)O[C@@H]1C[C@H]1CCCCCc1nc3ccc(OC)cc3nc1O2)C(=O)[N-]S(=O)(=O)C1CC1.[K+] [Example 1, Potassium {[(1R,2S)-1-({[(1aR,5S,8S,10R,22aR)-5-tert-butyl-14-methoxy-3,6-dioxo-1,1a,3,4,5,6,9,10,18,19,20,21,22,22a-tetradecahydro-8H-7,10-methanocyclopropa[18,19][1,10,3,6]dioxadiazacyclononadecino[11,12-b]quinoxalin-8-yl]carbonyl}amino)-2-vinylcyclopropyl]carbonyl}(cyclopropylsulfonyl)azanide]
- Rat Liver Concentration @ 24 h (25 mpk per os) ([1]; 25 mpk per os): 27.9 µM
- Rat Plasma AUC @ 25mpk per os ([1]; 25 mpk per os, plasma): 20.6 µM·h
- solubility at 24 h ([2]; thermodynamic from solid; K+ salt form, water; read-out: Aqueous solubility of K+ salt form): 1800 µg/mL
- Dog Liver Concentration @ 24 h (5mpk per os) ([3]; 5 mpk per os): 120 µM
- Dog Plasma AUC @ 5mpk per os ([3]; 5 mpk per os, plasma): 48.6 µM·h
- Covalent Protein Binding In Vivo, liver ([4]; LOQ = 3 pmol/mg): liver = LOQ
- Covalent Protein Binding In Vivo, plasma ([4]; LOQ = 3 pmol/mg, 20 mg/kg): undetectable binding; also recorded: plasma = LOQ,

SMILES: C=C[C@@H]1C[C@]1(NC(=O)[C@@H]1C[C@@H]2CN1C(=O)[C@H](C1CCCC1)NC(=O)O[C@@H]1CCC[C@H]1CCCCCc1nc3ccccc3cc1O2)C(=O)NS(=O)(=O)C1CC1 [WO 2008/057209 Example 96]
- Covalent Protein Binding In Vivo, liver [4]: liver = 63 pmol eq./mg
- Covalent Protein Binding In Vivo, plasma [4]: plasma = 6 pmol eq./mg

SMILES: C=C[C@@H]1C[C@]1(NC(=O)[C@@H]1C[C@@H]2CN1C(=O)[C@H](C(C)(C)C)NC(=O)O[C@@H]1CCC[C@H]1CCCCCc1nc3ccc(OC)cc3cc1O2)C(=O)NS(=O)(=O)C1CC1 [WO 2008/057209 Example 103]
- Covalent Protein Binding In Vivo, liver [4]: liver = 24 pmol eq./mg
- Covalent Protein Binding In Vivo, plasma [4]: plasma = 6 pmol eq./mg

SMILES: C=C[C@@H]1C[C@]1(NC(=O)[C@@H]1C[C@@H]2CN1C(=O)[C@H](C1CCCC1)NC(=O)O[C@@H]1CCC[C@H]1CCCCCc1nc3ccccc3nc1O2)C(=O)NS(=O)(=O)C1CC1 [WO 2008/057209 Example 108]
- Covalent Protein Binding In Vivo, liver [4]: liver = 38 pmol eq./mg
- Covalent Protein Binding In Vivo, plasma [4]: plasma = 15 pmol eq./mg

SMILES: C=C[C@@H]1C[C@]1(NC(=O)[C@@H]1C[C@@H]2CN1C(=O)[C@H](C(C)(C)C)NC(=O)O[C@@H]1C[C@H]1CCCCCc1nc3ccc(OC)cc3cc1O2)C(=O)NS(=O)(=O)C1CC1 [WO 2008/057209 Example 110]
- Rat Liver Concentration @ 24 h (25 mpk per os) ([1]; 25 mpk per os): 8.5 µM
- AUC ([1]; plasma, po, 25 mg/kg): 5.8 µM·h
- EC50 (HCV replicon gt1b): 5 nM
- solubility at 24 h ([2]; water, thermodynamic from solid, K+ salt form, read-out: Aqueous solubility of K+ salt form): 9700 µg/mL
- solubility at 24 h ([2]; water, thermodynamic from solid, crystalline zwitterionic form from disproportionation of the K+ salt, read-out: Aqueous solubility of crystalline zwitterionic form): < 9 µg/mL
- Dog Liver Concentration @ 24 h (5mpk per os) ([3]; 5 mpk per os): 3.3 µM
- AUC ([3]; plasma, po, 5 mg/kg): 1 µM·h
- Covalent Protein Binding In Vivo, liver ([4]; LOQ = 3 pmol/mg): liver = BLQ
- Covalent Protein Binding In Vivo, plasma ([4]; LOQ = 3 pmol/mg): plasma = BLQ,
- Ki (NS 3/4A 1b): < 0.016 nM
